Columns and labels:
[1] = tested on: hES cells (embryoid bodies)
Description: In this experiment, hES cells were maintained on primary mouse embryonic fibroblasts in serum-free medium according to standard methods.
The EBs were fed every other day.
Various analogs of butyrate were also tested at 5 mM.

[2] = tested on: hES derived embryoid bodies; experiment: Marker analysis by immunocytochemistry, PAS glycogen stain and BrdU labelling; format: cell-based, human; settings: 20% FBS and 5 mM sodium n-butyrate
Description: The morphology of the differentiated cells was remarkably uniform, showing a large polygonal surface and binucleated center characteristic of mature hepatocytes.
On the sixth day after plating in the differentiation agent, the cells were analyzed for expression of markers by RT-PCR and immunocytochemistry. Glycogen content in these cells was determined using periodic acid Schiff stain. The number of cells in S phase of cell cycle was determined by incubating the cells with 10 μM BrdU on day 5 after plating, and subsequently staining with anti-BrdU antibody 24 hours later.

CC(/C=C/C(=O)NO)=C\[C@@H](C)C(=O)c1ccc(N(C)C)cc1 [Trichostatin A]
toxicity to cells ([1]; at 2.5-100 μM): toxic | hepatocyte differentiation ([1]; at 10-50 nM): ineffective | hepatocyte differentiation and selection against other cell types ([1]; at 75-100 nM): appeared both to induce hepatocyte differentiation, and to select against survival of other cell types

CCCC(=O)[O-].[Na+] [sodium n-butyrate]
cell survival one day after plating ([1]; EBs plated in 20% FBS and 5 mM sodium butyrate): large proportion of apparently dead cells | % positive cells, BrdU staining ([2]; 10 μM BrdU on day 5, stained 24 hours later): 16% | % positive cells, Glycogen staining ([2]; periodic acid Schiff stain): 60% | % positive cells, Albumin ([2]; sixth day after plating): 55% | % positive cells, CK8 ([2]; sixth day after plating): 100% | % positive cells, CK18 ([2]; sixth day after plating): 100% | % positive cells, CK19 ([2]; sixth day after plating): 100% | % positive cells, Desmin ([2]; sixth day after plating): 0% | % positive cells, α1-antitrypsin ([2]; sixth day after plating): 90% | % positive cells, α-fetoprotein ([2]; sixth day after plating): 0%

From patent publication US9587223B2, “Protocols for making hepatocytes from embryonic stem cells” (Asterias Biotherapeutics, Inc., priority 2000, dated 2017)
